The values that follow are results of earlier work, collected in patent publication US9375441B2, “Lactulose for bowel evacuation” (Cumberland Pharmaceuticals, priority 2011, dated 2016).

Test in series [1]: not given
The source holds these as a separate data set.

Series [2] concerns patients at increased risk for colorectal cancer.
For series [3], the system named is patients with a history of chronic constipation.

In the case of `OC[C@H]1O[C@@H](O[C@@H]2[C@@H](CO)O[C@](O)(CO)[C@H]2O)[C@H](O)[C@@H](O)[C@H]1O` [lactulose, 4-O-b-D-Galactopyranosyl-D-fructofuranose], the “state in which oral doses reach the colon” value (no hydrolysing enzyme in human gastrointestinal tissue) is listed as “virtually unchanged”. Also, the “absorption from the gastrointestinal tract” value (oral) is on record as “poorly absorbed”. Moreover, the solubility in water entry in series [1] is “freely soluble”. The “patients with diarrhea sometime during the bowel preparation, %” value in series [2] (12 g lactulose powder once per day from 48 hours before MR colonography) was 38%. In addition, the “patients with diarrhea sometime during the bowel preparation, number” value in series [2] (12 g lactulose powder once per day from 48 hours before MR colonography, low-fiber diet, oral gadolinium contrast) is 77. Also, the “patients in whom diarrhea occurred just prior to imaging, number” value in series [2] (of the 77 patients with diarrhea) is listed as 48. For the same molecule, in series [3], the “number of bowel movements per day and number of days on which bowel movements occur” value is “increases”.
